Values of other authors, collected in patent EP1886664A1, “N-chloroamines containing compositions” (priority 2006, dated 2008).
Like-named read-outs stand apart in the source and are kept apart here.

Columns and labels:
[1] = according to Buckley
[2] = tested on: Bacteria, Viruses, Fungi, Seaweed, Yeasts, Parasite
[3] = tested on: bacterial flora in the oral cavity
mouse [4] = details: inhalation, 4 hours, maximum reached concentration
Skin = details: solution under 8%
mouse [5] = details: after 90 days

For `Cc1ccc(S(=O)(=O)NCl)cc1` [T-chloramine, sodium N-chloro-para-toluenesulfamide], the “antiseptic power compared to hypochlorites” value [1] is given as “four times higher than that of hypochlorites”, the “activity compared to Dakin's liquid” value ([1]; in the presence of blood) is given as “more active than the Dakin's liquid” and the biocide action ([2]; including viruses and microbacteria in the vegetative form either spori or not) is given as “biocide action against all forms of microorganisms”. For the same compound, the activity against microorganisms ([2]; organisms listed in the 1st table, the 2nd table and b31) was “active”, the “duration of antiseptic action when applied as a therapeutics” value ([3]; in vivo) was 24 h and the “duration of strong sustainable effect after application” value ([3]; mouthrinse) was “at least one”. The fraction still active (ambient with organic matter and microorganisms, after 24 hours) was “approximately half”, the “activity lost due to decomposition” value (solution under 5%, opaque container, 25°C, 210 days) was “less than 0.05%” and the decomposed (solutions under 0.5%, 30 days, 40°C) was 0.01%. For the same compound, the “LC 50” value (mouse [4]) was over 0.275 µg/mL, the “Irritation, Skin” value (Skin) was “not irritating” and the “Irritation, Eye” value (Eye; Solution under 0.5%) was “not irritating”. The “Irritation, Eye” value (Eye; solution under 8%) was “moderately irritating” and the “oral toxicity, level at which nothing was observed” value (mouse [5]) was 15 mg/kg/day.

In the case of `N=C(NCCCCCCNC(=N)NC(=N)Nc1ccc(Cl)cc1)NC(=N)Nc1ccc(Cl)cc1` [chlorexidine], the “sporicide, viruscide and microbacteria activity” value (microbacteria) is listed as “neither a sporicide, neither a viruscide and nor active against microbacteria”.
